From PMC12526212, “Novel Isolongifolenone-Based Caprolactam Derivatives as Potential Anticancer Agents via the p53/mTOR/Autophagy Pathway” (Molecules, 2025) come the findings set out here.

Assay [1] has as its system MCF-7 cells. Description: Comet assay (DNA damage). The class given is cell-based, human. The following applies: 24 h. The procedure: DNA fragmentation is a hallmark of apoptosis, mitotic catastrophe, or both. DNA damage in MCF-7 cells was investigated by single-cell gel electrophoresis in an agarose gel matrix (the ‘comet assay’). In this assay, the length of the ‘comet tail’ observed after EB staining of the cell nuclei is an indicator of the extent of DNA damage.
MCF-7 cells were seeded in 24-well plastic plates at a density of 5 × 10^4 cells per well and treated with compound E10 for 24 h. The alkaline DNA comet assay was performed according to the instructions of the OxiSelectTM Comet Assay Kit (Cell Biolabs, San Diego, CA, USA, Cat. # STA-350) and analyzed using a Zeiss fluorescent microscope (Jena, Germany). The free software Casplab-1.2.3b2 (CAS PLab, Wroclaw, Poland) was used to calculate the percentage of tail DNA and Olive Tail Moment (OTM) as markers of DNA damage (Olive Tail Moment = Tail DNA (%) × Tail Moment Length).

The next assay relates to A549. Kind of assay: CCK-8 antiproliferative assay, A549. The class given is cell-based. The following applies: Homo sapiens, A549; CCK-8, 48 h, mean ± SD of three experiments; read-out: IC50 A549. As to the method: After synthesis and characterization, the isolongifolenone bicyclocaprolactam derivatives were evaluated for their in vitro antiproliferative activity against three cancer cell lines (MCF-7, HepG2, A549) using a CCK-8 assay. […] In general, the antiproliferative activities of most of these compounds were similar, irrespective of whether electron-withdrawing or electron-donating substituents were introduced in the phenoxy ring.
Three cancer cell lines (human breast adenocarcinoma cells MCF-7, human lung adenocarcinoma epithelial cells A549, and human hepatocellular carcinoma cells HepG2) were obtained from the Cell Bank of the Chinese Academy of Sciences (Shanghai, China). LO2 human normal liver cells were also purchased from STEM RECELL (Beijing, China, STM-CL-5770). The anti-proliferation activity of compounds was tested on three cancer cell lines. The cytotoxicity of compounds as tested on normal cell line (human normal liver cells LO2). Cells were seeded at a density of 5000 cells per well in 96-well plates. Natural product piperlongumine was used as the positive control. All experiments were performed in triplicate. Three cancer cell lines were cultured in High DMEM medium or RIPM 1640 containing 10% FBS (Sijiqing, Hangzhou, China) and 1% antibiotics at 37 °C in a 5% CO2 incubator. The experimental cells were seeded in a 96-well plate at 5000 cells per well and incubated for 24 h. The old medium was replaced with experimental medium, and the cells were cultured for 48 h. Afterward, 10 µL of CCK-8 solution was added to each well, and the cells were incubated for 3 h. The absorbance at 450 nm was measured using a microplate reader.
For orientation: Tetrazolium dyes change colour on reduction, which living cells bring about.

Assay [2] has as its system MCF-7 cells. Description: MMP assay (JC-1, flow cytometry). The class given is cell-based, human. The note with it: 24 h. The procedure:
If intracellular ROS levels rise above a certain threshold, the mitochondria may become damaged. […] In these experiments, MCF-7 cells were incubated with E10 for 24 h, and mitochondrial membrane potential (MMP) was then evaluated by flow cytometry using JC-1 as an indicator. […] These changes in the red/green fluorescence ratio are indicative of mitochondrial depolarization, a decrease in mitochondrial function, and potentially damage to mitochondria.
MCF-7 cells were treated with different concentrations of compound E10 for 24 h. After that, the cells were collected and stained with JC-1 (Yeasen, Shanghai, China, 40706ES60) for 15 min. The cell samples were detected by flow cytometry (BD) and the data were analyzed by flowjo 10.6 software.
(In general: In flow cytometry, cells or beads pass a laser one at a time.)

In a further assay the test system is MCF-7 xenograft. Kind of assay: Zebrafish MCF-7 xenograft model. The class given is in vivo. From the text:
Zebrafish have become a well-established model for both anticancer drug discovery and toxicity evaluation. This animal model affords several unique advantages, including rapid development, optical transparency, and genetic conservation with humans. These features make zebrafish particularly suitable for high-throughput in vivo screening and mechanistic studies in oncology research. Tumor burden in zebrafish xenografts is commonly quantified from Dil/DiI-labeled fluorescence area or integrated intensity, which correlates with cell number and treatment response. To assess the in vivo antitumor efficacy of compound E10, we established a zebrafish xenograft model. Briefly, CM-Dil-labeled MCF-7 cells (showing red fluorescence) were microinjected into the yolk sacs of zebrafish embryos. The xenografted zebrafish were then randomly assigned into five groups: three E10-treatment groups (0.5 µg/mL, 1.0 µg/mL, and 2.0 µg/mL), a Doxorubicin (Dox) positive control group, and a PBS negative control group.
All experimental procedures were approved by ACUC of Shandong Academy of Sciences (Animal Care and Use Committee). Wild-type AB of zebrafish were obtained from Biology Institute, Qilu University of Technology. The embryos were incubated in special embryonic medium (0.17 mM KCl, 5.0 mM NaCl, 0.4 mM CaCl2, and 0.16 mM MgSO4) at 28 °C. 48 h-old zebrafish embryos were microinjected with CM-Dil labelled MCF-7 cells under stereomicroscopy. After injection, zebrafish embryos with the same injection spot were randomly planted on a six-well plate. These xenograft zebrafish were sorted into four groups of about 15–20 zebrafish each and treated with 0.5, 1.0, 2.0 μg/mL of compound E10 for 48 h, 1.0 μM doxorubicin as a positive control group. After treatment, the fluorescence intensity of living cells was examined with laser confocal microscopy (Olympus, Tokyo, Japan).

For assay [3], the system named is MCF-7 cells. Description: Intracellular ROS assay (DCFH-DA, flow cytometry). The class given is cell-based, human. The note with it: 24 h, compared to control. The procedure: Oxidative stress is known to increase intracellular reactive oxygen species (ROS) levels and to contribute to cell apoptosis and autophagy. To investigate whether E10 induced intracellular ROS accumulation, ROS levels in MCF-7 cells were determined by flow cytometric assay using DCFH-DA as a redox-sensitive probe.
For the detection of intracellular ROS levels, MCF-7 cells were seeded at a density of 5 × 10^5 cells per well in a 12-well plate and treated with different concentrations of compound E10 for 24 h. The cells were collected and stained with 5 μM of DCFH-DA dye (Yeasen, Shanghai, China, 50101ES01) in the incubator for 30 min. Flow cytometry (BD) detected the stained cell samples, and the data were analyzed using FlowJo software.

Assay [4] concerns MCF-7 cells. Kind of assay: Autophagy assay using transmission electron microscopy. The following applies: 24 h. The assay is classed as cell-based, human. The procedure:
To investigate whether E10 induced autophagy in MCF-7 cells, we performed Monodansylcadaverine (MDC) staining, transmission electron microscopy (TEM), and Western blot analysis to evaluate autophagy-related markers. MDC is a fluorescent probe commonly used to detect the formation of autophagic vacuoles, as it specifically labels autophagosomes.
MCF-7 cells were treated with E10 for 24 h. Cells were washed twice with pre-cold PBS, fixed in 2% glutaraldehyde at 4 °C for 2 h. Then, the sample was post-fixed in 2% osmium tetroxide for 1 h at 4 °C in the dark. Samples were dehydrated through a graded ethanol series, infiltrated and embedded in Spurr’s resin, and polymerized at 60 °C overnight. Ultrathin sections (~70–90 nm) were cut on an ultramicrotome, mounted on copper grids, counterstained with uranyl acetate and lead citrate, and examined by transmission electron microscopy (JEM-100CX; JEOL, Tokyo, Japan) at the indicated magnifications.

One may read the IC50 as the concentration needed to halve the response being measured. As for `CC1(C)C2=CC(=O)N(C(=O)C=Cc3cccc(C(F)(F)F)c3)CC(C)(C)C23CCC1C3` (stereo not shown) [E10, 5,5,9,9-Tetramethyl-3-(3-(3-(trifluoromethyl)phenyl)acryloyl)-4,5,6,7,8,9-hexahydro-5a,8-methanobenzo[d]azepin-2(3H)-one], the “DNA damage, comet formation” value with MCF-7 cells [1] was “induced DNA fragmentation”. In the assay on A549, the IC50 came to 1.39 ± 0.32 µM. In addition, the “mitochondrial membrane potential” value in the assay with MCF-7 cells [2] is reported as “concentration-dependent reduction in MMP”. In the assay on MCF-7 xenograft (2.0 µg/mL E10, 48 h), the “inhibition rate (decrease in fluorescence)” value is reported as 50.0%. In addition, the “fluorescence intensity of xenograft” value with MCF-7 xenograft (48 h, compared with PBS control, Dox 1.0 μM) is listed as “notable reduction in fluorescence intensity”. In the assay with MCF-7 cells [3], the “intracellular ROS levels” value is “markedly increased”. The “TEM, autophagic vesicles” value with MCF-7 cells [4] is “presence of membrane-bound autophagic vesicles”.
